According to PubChem BioAssay (NCI):
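GI50 is the concentration that inhibits growth by half. TGI denotes the concentration required for complete inhibition of growth.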

How the values were obtained:
Test in all cases: inhibition of tumour cell growth, NCI panel, 384-well format
SN12C renal = system: SN12C renal
A498 renal = system: A498 renal
OVCAR-8 ovarian = system: OVCAR-8 ovarian
NCI-H23 lung = system: NCI-H23 lung
MALME-3M melanoma = system: MALME-3M melanoma
COLO 205 colon = system: COLO 205 colon
PC-3 prostate = system: PC-3 prostate
DU-145 prostate = system: DU-145 prostate
A549 NSCLC = system: A549 NSCLC
NCI-H226 lung = system: NCI-H226 lung
MDA-MB-468 breast = system: MDA-MB-468 breast
HCT-15 colon = system: HCT-15 colon
NCI-H460 NSCLC = system: NCI-H460 NSCLC
SNB-19 CNS = system: SNB-19 CNS
SF-268 CNS = system: SF-268 CNS
KM12 colon = system: KM12 colon
SR leukemia = system: SR leukemia
SF-539 CNS = system: SF-539 CNS
MDA-MB-435 melanoma = system: MDA-MB-435 melanoma
NCI-H522 lung = system: NCI-H522 lung
TK-10 renal = system: TK-10 renal
OVCAR-3 ovarian = system: OVCAR-3 ovarian
MOLT-4 leukemia = system: MOLT-4 leukemia
UACC-257 melanoma = system: UACC-257 melanoma
UO-31 renal = system: UO-31 renal
SK-MEL-28 melanoma = system: SK-MEL-28 melanoma
CCRF-CEM leukemia = system: CCRF-CEM leukemia
SK-MEL-5 melanoma = system: SK-MEL-5 melanoma
HL-60(TB) leukemia = system: HL-60(TB) leukemia
OVCAR-4 ovarian = system: OVCAR-4 ovarian
UACC-62 melanoma = system: UACC-62 melanoma
OVCAR-5 ovarian = system: OVCAR-5 ovarian
K-562 leukemia = system: K-562 leukemia
U251 glioblastoma = system: U251 glioblastoma
HOP-92 NSCLC = system: HOP-92 NSCLC
786-0 renal = system: 786-0 renal
SF-295 CNS = system: SF-295 CNS
BT-549 breast = system: BT-549 breast
SW-620 colon = system: SW-620 colon
IGROV1 ovarian = system: IGROV1 ovarian
SK-MEL-2 melanoma = system: SK-MEL-2 melanoma
HCT-116 colon = system: HCT-116 colon
NCI/ADR-RES ovarian = system: NCI/ADR-RES ovarian
MDA-MB-231 breast = system: MDA-MB-231 breast
CAKI-1 renal = system: CAKI-1 renal
LOX IMVI melanoma = system: LOX IMVI melanoma
HCC-2998 colon = system: HCC-2998 colon
ACHN renal = system: ACHN renal
MCF7 breast = system: MCF7 breast
NCI-H322M lung = system: NCI-H322M lung
T-47D breast = system: T-47D breast
M14 melanoma = system: M14 melanoma
HT29 colon = system: HT29 colon
HOP-62 NSCLC = system: HOP-62 NSCLC
SK-OV-3 ovarian = system: SK-OV-3 ovarian
RPMI-8226 leukemia = system: RPMI-8226 leukemia
RXF 393 renal = system: RXF 393 renal

`COCCNCc1ccc(-c2cc3nccc(Oc4ccc(NC(=O)C5(C(=O)Nc6ccc(F)cc6)CC5)cc4F)c3s2)nc1` showed a GI50 (SN12C renal) of 346 nM, a TGI (SN12C renal) of 1670 nM and a GI50 (A498 renal) of 1410 nM. For the same molecule, the TGI (A498 renal) was 2720 nM, the GI50 (OVCAR-8 ovarian) was 1570 nM and the TGI (OVCAR-8 ovarian) was 2920 nM. For the same molecule, the GI50 (NCI-H23 lung) was 414 nM, the TGI (NCI-H23 lung) was 1960 nM and the GI50 (MALME-3M melanoma) was 1030 nM. The TGI (MALME-3M melanoma) was 2200 nM, the GI50 (COLO 205 colon) was 1140 nM and the TGI (COLO 205 colon) was 2370 nM. The GI50 (PC-3 prostate) was 1690 nM, the TGI (PC-3 prostate) was 3.09 µM and the GI50 (DU-145 prostate) was 1750 nM. The TGI (DU-145 prostate) was 3.14 µM, the GI50 (A549 NSCLC) was 1280 nM and the TGI (A549 NSCLC) was 2560 nM. It also gave a GI50 (NCI-H226 lung) of 1580 nM, a TGI (NCI-H226 lung) of 2960 nM and a GI50 (MDA-MB-468 breast) of 1940 nM. For the same molecule, the TGI (MDA-MB-468 breast) was 3.36 µM, the GI50 (HCT-15 colon) was 1280 nM and the TGI (HCT-15 colon) was 2550 nM. The GI50 (NCI-H460 NSCLC) was 1450 nM, the TGI (NCI-H460 NSCLC) was 2790 nM and the GI50 (SNB-19 CNS) was 1900 nM. For the same molecule, the TGI (SNB-19 CNS) was 3.33 µM, the GI50 (SF-268 CNS) was 1570 nM and the TGI (SF-268 CNS) was 2930 nM. For the same molecule, the GI50 (KM12 colon) was 30.9 nM, the TGI (KM12 colon) was 1080 nM and the GI50 (SR leukemia) was 1130 nM. The TGI (SR leukemia) was 2340 nM, the GI50 (SF-539 CNS) was 466 nM and the TGI (SF-539 CNS) was 1910 nM. The GI50 (MDA-MB-435 melanoma) was 1370 nM, the TGI (MDA-MB-435 melanoma) was 2680 nM and the GI50 (NCI-H522 lung) was 1280 nM. For the same molecule, the TGI (NCI-H522 lung) was 2540 nM, the GI50 (TK-10 renal) was 1690 nM and the TGI (TK-10 renal) was 3.11 µM. It also gave a GI50 (OVCAR-3 ovarian) of 1590 nM, a TGI (OVCAR-3 ovarian) of 2960 nM and a GI50 (MOLT-4 leukemia) of 477 nM. It also gave a TGI (MOLT-4 leukemia) of 1630 nM, a GI50 (UACC-257 melanoma) of 186 nM and a TGI (UACC-257 melanoma) of 396 nM. It also gave a GI50 (UO-31 renal) of 1380 nM, a TGI (UO-31 renal) of 2700 nM and a GI50 (SK-MEL-28 melanoma) of 1430 nM. For the same molecule, the TGI (SK-MEL-28 melanoma) was 2750 nM, the GI50 (CCRF-CEM leukemia) was 1420 nM and the TGI (CCRF-CEM leukemia) was 2730 nM. For the same molecule, the GI50 (SK-MEL-5 melanoma) was 1130 nM, the TGI (SK-MEL-5 melanoma) was 2350 nM and the GI50 (HL-60(TB) leukemia) was 1480 nM. The TGI (HL-60(TB) leukemia) was 2800 nM, the GI50 (OVCAR-4 ovarian) was 1360 nM and the TGI (OVCAR-4 ovarian) was 2660 nM. For the same molecule, the GI50 (UACC-62 melanoma) was 1240 nM, the TGI (UACC-62 melanoma) was 2510 nM and the GI50 (OVCAR-5 ovarian) was 1630 nM. For the same molecule, the TGI (OVCAR-5 ovarian) was 3.1 µM, the GI50 (K-562 leukemia) was 101 nM and the TGI (K-562 leukemia) was 219 nM. It also gave a GI50 (U251 glioblastoma) of 1450 nM, a TGI (U251 glioblastoma) of 2780 nM and a GI50 (HOP-92 NSCLC) of 166 nM. The TGI (HOP-92 NSCLC) was 1050 nM, the GI50 ([…]-0 renal) was 1550 nM and the TGI (786-0 renal) was 2890 nM. For the same molecule, the GI50 (SF-295 CNS) was 396 nM, the TGI (SF-295 CNS) was 1950 nM and the GI50 (BT-549 breast) was 1620 nM. For the same molecule, the TGI (BT-549 breast) was 2980 nM, the GI50 (SW-620 colon) was 1260 nM and the TGI (SW-620 colon) was 2530 nM. It also gave a GI50 (IGROV1 ovarian) of 1360 nM, a TGI (IGROV1 ovarian) of 2670 nM and a GI50 (SK-MEL-2 melanoma) of 1410 nM. For the same molecule, the TGI (SK-MEL-2 melanoma) was 2710 nM, the GI50 (HCT-116 colon) was 1100 nM and the TGI (HCT-116 colon) was 2310 nM. It also gave a GI50 (NCI/ADR-RES ovarian) of 1560 nM, a TGI (NCI/ADR-RES ovarian) of 2950 nM and a GI50 (MDA-MB-231 breast) of 1320 nM. For the same molecule, the TGI (MDA-MB-231 breast) was 2600 nM, the GI50 (CAKI-1 renal) was 1250 nM and the TGI (CAKI-1 renal) was 2560 nM. The GI50 (LOX IMVI melanoma) was 2260 nM, the TGI (LOX IMVI melanoma) was 3.73 µM and the GI50 (HCC-2998 colon) was 1480 nM. It also gave a TGI (HCC-2998 colon) of 2810 nM, a GI50 (ACHN renal) of 682 nM and a TGI (ACHN renal) of 1960 nM. It also gave a GI50 (MCF7 breast) of 1150 nM, a TGI (MCF7 breast) of 2370 nM and a GI50 (NCI-H322M lung) of 1400 nM. It also gave a TGI (NCI-H322M lung) of 2720 nM, a GI50 (T-47D breast) of 1160 nM and a TGI (T-47D breast) of 2390 nM. The GI50 (M14 melanoma) was 1370 nM, the TGI (M14 melanoma) was 2670 nM and the GI50 (HT29 colon) was 574 nM. The TGI (HT29 colon) was 1840 nM, the GI50 (HOP-62 NSCLC) was 1810 nM and the TGI (HOP-62 NSCLC) was 3.21 µM. For the same molecule, the GI50 (SK-OV-3 ovarian) was 1180 nM, the TGI (SK-OV-3 ovarian) was 2420 nM and the GI50 (RPMI-8226 leukemia) was 499 nM. It also gave a TGI (RPMI-8226 leukemia) of 1560 nM, a GI50 (RXF 393 renal) of 768 nM and a TGI (RXF 393 renal) of 2050 nM.
